According to PubChem BioAssay AID1259407 (Chemical Carcinogenesis Research Information System (CCRIS), 2018):
Active and inactive are the calls of the source. How the calls were made is not given here.

Tested on: CCRIS mutagenicity, Ames/micronucleus/aberration tests
Assay: CCRIS mutagenicity studies
[1] = Test System: AMES SALMONELLA TYPHIMURIUM, Strain/Indicator: TA97, Metabolic Activation: NONE, Method: STANDARD PLATE
[2] = Test System: AMES SALMONELLA TYPHIMURIUM, Strain/Indicator: TA97, Metabolic Activation: RAT, LIVER, S-9, AROCLOR 1254, Method: STANDARD PLATE
[3] = Test System: AMES SALMONELLA TYPHIMURIUM, Strain/Indicator: TA98, Metabolic Activation: NONE, Method: STANDARD PLATE
[4] = Test System: AMES SALMONELLA TYPHIMURIUM, Strain/Indicator: TA98, Metabolic Activation: RAT, LIVER, S-9, AROCLOR 1254, Method: STANDARD PLATE
[5] = Test System: AMES SALMONELLA TYPHIMURIUM, Strain/Indicator: TA100, Metabolic Activation: NONE, Method: STANDARD PLATE
[6] = Test System: AMES SALMONELLA TYPHIMURIUM, Strain/Indicator: TA100, Metabolic Activation: RAT, LIVER, S-9, AROCLOR 1254, Method: STANDARD PLATE
[7] = Test System: AMES SALMONELLA TYPHIMURIUM, Strain/Indicator: TA102, Metabolic Activation: NONE, Method: STANDARD PLATE
[8] = Test System: AMES SALMONELLA TYPHIMURIUM, Strain/Indicator: TA102, Metabolic Activation: RAT, LIVER, S-9, AROCLOR 1254, Method: STANDARD PLATE
[9] = Test System: AMES SALMONELLA TYPHIMURIUM, Strain/Indicator: TA100, Metabolic Activation: RAT, LIVER, S-9, AROCLOR 1254
[10] = Test System: AMES SALMONELLA TYPHIMURIUM, Strain/Indicator: TA1535, Metabolic Activation: NONE, Method: STANDARD PLATE
[11] = Test System: AMES SALMONELLA TYPHIMURIUM, Strain/Indicator: TA1535, Metabolic Activation: RAT, LIVER, S-9, AROCLOR 1254, Method: STANDARD PLATE
[12] = Test System: AMES SALMONELLA TYPHIMURIUM, Strain/Indicator: TA1537, Metabolic Activation: NONE, Method: STANDARD PLATE

In the case of `Cc1cc(Cl)ccc1OCCCC(=O)O`, the mutagenic call [1] is reported as “inactive; negative”, the mutagenic call [2] is reported as “inactive; negative” and the mutagenic call [3] is reported as “inactive; negative”. The mutagenic call [4] was “inactive; negative”, the mutagenic call [5] was “inactive; negative” and the mutagenic call [6] was “inactive; negative”. For the same compound, the mutagenic call [7] was “inactive; negative” and the mutagenic call [8] was “inactive; negative”.

In the case of `NC(=O)CN1CC(O)CC1=O` (stereo not given), the mutagenic call (Test System: AMES SALMONELLA TYPHIMURIUM, Strain/Indicator: TA98, Metabolic Activation: NONE) is reported as “inactive; negative”, the mutagenic call (Test System: AMES SALMONELLA TYPHIMURIUM, Strain/Indicator: TA98, Metabolic Activation: RAT, LIVER, S-9, AROCLOR 1254) is reported as “inactive; negative” and the mutagenic call (Test System: AMES SALMONELLA TYPHIMURIUM, Strain/Indicator: TA100, Metabolic Activation: NONE) is reported as “inactive; negative”. The mutagenic call [9] was “inactive; negative”, the mutagenic call (Test System: AMES SALMONELLA TYPHIMURIUM, Strain/Indicator: TA1535, Metabolic Activation: NONE) was “inactive; negative” and the mutagenic call (Test System: AMES SALMONELLA TYPHIMURIUM, Strain/Indicator: TA1535, Metabolic Activation: RAT, LIVER, S-9, AROCLOR 1254) was “inactive; negative”. For the same compound, the mutagenic call (Test System: AMES SALMONELLA TYPHIMURIUM, Strain/Indicator: TA1537, Metabolic Activation: NONE) was “inactive; negative”, the mutagenic call (Test System: AMES SALMONELLA TYPHIMURIUM, Strain/Indicator: TA1537, Metabolic Activation: RAT, LIVER, S-9, AROCLOR 1254) was “inactive; negative” and the mutagenic call (Test System: E. COLI, Strain/Indicator: WP2 UVRA, Metabolic Activation: NONE) was “inactive; negative”. For the same compound, the mutagenic call (Test System: E. COLI, Strain/Indicator: WP2 UVRA, Metabolic Activation: RAT, LIVER, S-9, AROCLOR 1254) was “inactive; negative”.

In the case of `O=C(Cl)OCC1c2ccccc2-c2ccccc21`, the mutagenic call [3] is reported as “inactive; negative”, the mutagenic call [4] is reported as “inactive; negative” and the mutagenic call [5] is reported as “inactive; negative”. The mutagenic call [6] was “inactive; negative”, the mutagenic call [10] was “inactive; negative” and the mutagenic call [11] was “inactive; negative”. For the same compound, the mutagenic call [12] was “inactive; negative” and the mutagenic call (Test System: AMES SALMONELLA TYPHIMURIUM, Strain/Indicator: TA1537, Metabolic Activation: RAT, LIVER, S-9, AROCLOR 1254, Method: STANDARD PLATE) was “active; positive”.

For `Cc1c(N)nc([C@H](CC(N)=O)NC[C@H](N)C(N)=O)nc1C(=O)N[C@H](C(=O)N[C@H](C)[C@@H](O)[C@H](C)C(=O)N[C@H](C(=O)NCCc1nc(-c2nc(C(=O)NCCCN[C@@H](C)c3ccccc3)cs2)cs1)[C@@H](C)O)[C@@H](O[C@@H]1O[C@@H](CO)[C@@H](O)[C@H](O)[C@@H]1O[C@H]1O[C@H](CO)[C@@H](O)[C@H](OC(N)=O)[C@@H]1O)c1cnc[nH]1`, the mutagenic call [7] was “active; positive” and the mutagenic call [12] was “inactive; negative”.

For `Cc1ccc2c3c(cc4ccccc4c13)-c1ccccc1-2`, the mutagenic call [9] was “active; positive”.

For `Nc1ccc(-c2ccc([N+](=O)[O-])cc2N)c([N+](=O)[O-])c1`, the mutagenic call (Test System: AMES SALMONELLA TYPHIMURIUM, Strain/Indicator: TA98, Metabolic Activation: NONE, Method: PREINCUBATION) was “active; positive” and the mutagenic call (Test System: AMES SALMONELLA TYPHIMURIUM, Strain/Indicator: TA98, Metabolic Activation: RAT, LIVER, S-9, KANECHLOR 500, Method: PREINCUBATION) was “active; positive”.

With `CC(C)CCC[C@@H](C)[C@H]1CC[C@H]2[C@@H]3C[C@@H](O)[C@@]4(O)C[C@@H](O)CC[C@]4(C)[C@H]3CC[C@]12C` the mutagenic call [1] was “active; positive”, the mutagenic call [2] was “inactive; negative” and the mutagenic call [3] was “active; positive”. The mutagenic call [4] was “inactive; negative”, the mutagenic call [5] was “active; positive” and the mutagenic call [6] was “inactive; negative”. For the same compound, the mutagenic call [7] was “active; positive”, the mutagenic call [8] was “inactive; negative” and the mutagenic call [10] was “active; positive”. For the same compound, the mutagenic call [11] was “active; positive”, the mutagenic call (Test System: CHINESE HAMSTER V-79, Strain/Indicator: V-79/8-AZAGUANINE, Metabolic Activation: NONE) was “active; positive” and the mutagenic call (Test System: CHINESE HAMSTER V-79, Strain/Indicator: V-79/OUABAIN, Metabolic Activation: NONE) was “inactive; negative”. For the same compound, the mutagenic call (Test System: IN VITRO CHROMOSOMAL ABERRATIONS, Strain/Indicator: CHINESE HAMSTER OVARY EPITHELIAL (CHO-K1) CELLS, Metabolic Activation: NONE) was “active; positive (structural changes)” and the mutagenic call (Test System: IN VITRO CHROMOSOMAL ABERRATIONS, Strain/Indicator: CHINESE HAMSTER OVARY EPITHELIAL (CHO-K1) CELLS, Metabolic Activation: RAT, LIVER, S-9, AROCLOR 1254) was “active; positive (structural changes); lower response in presence of s-9”.

For `Nc1c2ccccc2cc2ccccc12`, the mutagenic call (Test System: AMES SALMONELLA TYPHIMURIUM, Strain/Indicator: TA98, Metabolic Activation: RAT, LIVER, S-9, AROCLOR 1254 (2%), Method: STANDARD PLATE) was “active; positive”, the mutagenic call (Test System: AMES SALMONELLA TYPHIMURIUM, Strain/Indicator: TA98, Metabolic Activation: RAT, LIVER, S-9, AROCLOR 1254 (4%), Method: STANDARD PLATE) was “active; positive” and the mutagenic call (Test System: AMES SALMONELLA TYPHIMURIUM, Strain/Indicator: TA100, Metabolic Activation: RAT, LIVER, S-9, AROCLOR 1254 (2%), Method: STANDARD PLATE) was “active; positive”. The mutagenic call (Test System: AMES SALMONELLA TYPHIMURIUM, Strain/Indicator: TA1535, Metabolic Activation: RAT, LIVER, S-9, AROCLOR 1254 (2%), Method: STANDARD PLATE) was “inactive; negative” and the mutagenic call (Test System: AMES SALMONELLA TYPHIMURIUM, Strain/Indicator: TA1537, Metabolic Activation: RAT, LIVER, S-9, AROCLOR 1254 (2%), Method: STANDARD PLATE) was “active; positive”.
